{
  "source": "the OligoGym collection",
  "note": "HELM strings list units from the 5' end as sugar, base in round brackets, then linkage (d deoxyribose, r ribose, m 2'-O-methyl, p phosphodiester). Strings are as the collection lists them; they lack the last nucleoside at the 3' end of the tested compound. [moe] = 2'-O-(2-methoxyethyl) (MOE); [sp] = phosphorothioate linkage; [m5C] = 5-methylcytosine",
  "data": [
    {"molecular_target": "ATXN3", "assay": "mouse, dose not given", "details": "ASO", "units": {"3 h FOB score": "score 0-7"}, "values": [
      {"substance": "RNA1{[moe](A)[sp].[moe](A)p.[moe](T)p.[moe](G)p.[moe]([m5C])p.d(A)[sp].d(T)[sp].d(A)[sp].d(T)[sp].d(T)[sp].d(G)[sp].d(G)[sp].d(T)[sp].d(T)[sp].d(T)[sp].[moe](T)p.[moe]([m5C])p.[moe](T)[sp].[moe]([m5C])}$$$$ (last 3' nucleoside missing)", "3 h FOB score": 4},
      {"substance": "RNA1{[moe](A)[sp].[moe](G)p.[moe](T)p.[moe](G)p.[moe]([m5C])p.[moe](T)p.d(T)[sp].d(T)[sp].d(T)[sp].d([m5C])[sp].d(A)[sp].d(T)[sp].d(A)[sp].d([m5C])[sp].d([m5C])[sp].d(A)[sp].[moe](G)p.[moe](G)[sp].[moe](T)}$$$$ (last 3' nucleoside missing)", "3 h FOB score": 1},
      {"substance": "RNA1{[moe](T)[sp].[moe](T)p.[moe](T)p.[moe]([m5C])p.[moe](A)p.d(T)[sp].d(G)[sp].d(T)[sp].d(T)[sp].d([m5C])[sp].d([m5C])[sp].d(A)[sp].d(G)[sp].d(A)[sp].d(T)[sp].[moe]([m5C])p.[moe](A)p.[moe]([m5C])[sp].[moe]([m5C])}$$$$ (last 3' nucleoside missing)", "3 h FOB score": 1},
      {"substance": "RNA1{[moe](T)[sp].[moe](G)p.[moe]([m5C])p.[moe](T)p.[moe](T)p.d(T)[sp].d(T)[sp].d([m5C])[sp].d(A)[sp].d(T)[sp].d(A)[sp].d([m5C])[sp].d([m5C])[sp].d(A)[sp].d(G)[sp].[moe](G)p.[moe](T)p.[moe]([m5C])[sp].[moe](T)}$$$$ (last 3' nucleoside missing)", "3 h FOB score": 1.25},
      {"substance": "RNA1{[moe](A)[sp].[moe](G)p.[moe](T)p.[moe](G)p.[moe]([m5C])[sp].d(T)[sp].d(U)[sp].d(T)[sp].d(T)[sp].d([m5C])[sp].d(A)[sp].d(T)[sp].d(A)[sp].d([m5C])[sp].d([m5C])[sp].[moe](A)p.[moe](G)p.[moe](G)[sp].[moe](T)}$$$$ (last 3' nucleoside missing)", "3 h FOB score": 0.75},
      {"substance": "RNA1{[moe]([m5C])[sp].[moe]([m5C])p.[moe]([m5C])p.[moe](A)p.[moe](A)[sp].d(T)[sp].d(A)[sp].d(A)[sp].d(T)[sp].d([m5C])[sp].d(T)[sp].d(G)[sp].d(A)[sp].d([m5C])[sp].d(A)[sp].[moe](T)p.[moe]([m5C])p.[moe]([m5C])[sp].[moe](T)}$$$$ (last 3' nucleoside missing)", "3 h FOB score": 1.5},
      {"substance": "RNA1{[moe](G)[sp].[moe](T)p.[moe](G)p.[moe]([m5C])p.[moe](T)p.d(T)[sp].d(T)[sp].d(T)[sp].d([m5C])[sp].d(A)[sp].d(T)[sp].d(A)[sp].d([m5C])[sp].d([m5C])[sp].d(A)[sp].[moe](G)p.[moe](G)p.[moe](T)[sp].[moe]([m5C])}$$$$ (last 3' nucleoside missing)", "3 h FOB score": 1.5},
      {"substance": "RNA1{[moe](G)[sp].[moe]([m5C])p.[moe]([m5C])p.[moe](A)p.[moe](T)p.[moe](T)p.d(A)[sp].d(A)[sp].d(T)[sp].d([m5C])[sp].d(T)[sp].d(A)[sp].d(T)[sp].d(A)[sp].d([m5C])[sp].d(T)[sp].[moe](G)p.[moe](A)[sp].[moe](A)}$$$$ (last 3' nucleoside missing)", "3 h FOB score": 0},
      {"substance": "RNA1{[moe]([m5C])[sp].[moe](A)p.[moe](A)p.[moe](T)p.[moe](A)p.d(T)[sp].d(T)[sp].d(T)[sp].d(A)[sp].d(T)[sp].d(A)[sp].d(G)[sp].d(G)[sp].d(T)[sp].d(G)[sp].[moe]([m5C])p.[moe](T)p.[moe](G)[sp].[moe]([m5C])}$$$$ (last 3' nucleoside missing)", "3 h FOB score": 4},
      {"substance": "RNA1{[moe](T)[sp].[moe](G)[sp].[moe](G)p.[moe]([m5C])p.[moe](A)[sp].d([m5C])[sp].d(A)[sp].d(T)[sp].d(T)[sp].d(T)[sp].d(T)[sp].d(T)[sp].d(T)[sp].d(A)[sp].d(T)[sp].[moe](A)p.[moe](G)p.[moe](A)[sp].[moe](G)}$$$$ (last 3' nucleoside missing)", "3 h FOB score": 3.25},
      {"substance": "RNA1{[moe](A)[sp].[moe](A)p.[moe](T)p.[moe](G)p.[moe]([m5C])[sp].d(T)[sp].d([m5C])[sp].d(A)[sp].d(T)[sp].d(T)[sp].d(T)[sp].d(A)[sp].d(T)[sp].d(T)[sp].d([m5C])[sp].[moe](T)p.[moe]([m5C])p.[moe](A)[sp].[moe](A)}$$$$ (last 3' nucleoside missing)", "3 h FOB score": 2},
      {"substance": "RNA1{[moe](T)[sp].[moe](G)p.[moe](G)p.[moe](A)p.[moe](A)[sp].d([m5C])[sp].d(T)[sp].d(A)[sp].d([m5C])[sp].d([m5C])[sp].d(T)[sp].d(T)[sp].d(G)[sp].d([m5C])[sp].d(A)[sp].[moe](T)p.[moe](A)p.[moe]([m5C])[sp].[moe](T)}$$$$ (last 3' nucleoside missing)", "3 h FOB score": 5.38},
      {"substance": "RNA1{[moe](G)[sp].[moe]([m5C])p.[moe](A)p.[moe](T)p.[moe](A)p.d(T)[sp].d(T)[sp].d(G)[sp].d(G)[sp].d(T)[sp].d(T)[sp].d(T)[sp].d(T)[sp].d([m5C])[sp].d(T)[sp].[moe]([m5C])p.[moe](A)p.[moe](T)p.[moe](T)}$$$$ (last 3' nucleoside missing)", "3 h FOB score": 3},
      {"substance": "RNA1{[moe](A)[sp].[moe]([m5C])p.[moe](T)p.[moe](G)p.[moe]([m5C])[sp].d(A)[sp].d([m5C])[sp].d(A)[sp].d([m5C])[sp].d(T)[sp].d(T)[sp].d(T)[sp].d([m5C])[sp].d([m5C])[sp].d(T)[sp].[moe]([m5C])p.[moe]([m5C])p.[moe](T)[sp].[moe]([m5C])}$$$$ (last 3' nucleoside missing)", "3 h FOB score": 0},
      {"substance": "RNA1{[moe]([m5C])[sp].[moe]([m5C])p.[moe](A)p.[moe](A)p.[moe](T)[sp].d(A)[sp].d(T)[sp].d(T)[sp].d(T)[sp].d(A)[sp].d(T)[sp].d(A)[sp].d(G)[sp].d(G)[sp].d(T)[sp].[moe](G)p.[moe]([m5C])p.[moe](T)[sp].[moe](G)}$$$$ (last 3' nucleoside missing)", "3 h FOB score": 3.5},
      {"substance": "RNA1{[moe](T)[sp].[moe](G)p.[moe](G)p.[moe]([m5C])p.[moe](A)p.d([m5C])[sp].d(A)[sp].d(T)[sp].d(T)[sp].d(T)[sp].d(T)[sp].d(T)[sp].d(T)[sp].d(A)[sp].d(T)[sp].[moe](A)p.[moe](G)p.[moe](A)[sp].[moe](G)}$$$$ (last 3' nucleoside missing)", "3 h FOB score": 2.5},
      {"substance": "RNA1{[moe]([m5C])[sp].[moe](A)p.[moe](G)p.[moe]([m5C])p.[moe](A)p.[moe]([m5C])p.d([m5C])[sp].d(A)[sp].d(T)[sp].d(A)[sp].d(T)[sp].d(A)[sp].d(T)[sp].d(A)[sp].d(T)[sp].d([m5C])[sp].[moe](T)p.[moe]([m5C])[sp].[moe](A)}$$$$ (last 3' nucleoside missing)", "3 h FOB score": 0.625},
      {"substance": "RNA1{[moe](G)[sp].[moe](G)p.[moe](T)p.[moe](T)p.[moe](T)[sp].d(T)[sp].d([m5C])[sp].d(T)[sp].d([m5C])[sp].d(A)[sp].d(T)[sp].d(T)[sp].d(T)[sp].d(T)[sp].d(T)[sp].[moe](A)p.[moe](T)p.[moe](A)[sp].[moe](T)}$$$$ (last 3' nucleoside missing)", "3 h FOB score": 2.25},
      {"substance": "RNA1{[moe](G)[sp].[moe](T)p.[moe](T)[sp].[moe](A)[sp].[moe](A)[sp].d(T)[sp].d(A)[sp].d([m5C])[sp].d(T)[sp].d(T)[sp].d(T)[sp].d(T)[sp].d(T)[sp].d([m5C])[sp].d([m5C])[sp].[moe](A)[sp].[moe](G)p.[moe]([m5C])[sp].[moe]([m5C])}$$$$ (last 3' nucleoside missing)", "3 h FOB score": 1},
      {"substance": "RNA1{[moe](T)[sp].[moe](G)p.[moe](G)p.[moe](T)p.[moe](T)[sp].d(T)[sp].d(T)[sp].d([m5C])[sp].d(T)[sp].d([m5C])[sp].d(A)[sp].d(T)[sp].d(T)[sp].d(T)[sp].d(T)[sp].[moe](T)p.[moe](A)p.[moe](T)[sp].[moe](A)}$$$$ (last 3' nucleoside missing)", "3 h FOB score": 0},
      {"substance": "RNA1{[moe](A)[sp].[moe]([m5C])p.[moe]([m5C])p.[moe](A)p.[moe](T)[sp].d([m5C])[sp].d(T)[sp].d(T)[sp].d(T)[sp].d(G)[sp].d(A)[sp].d([m5C])[sp].d(A)[sp].d(A)[sp].d(G)[sp].[moe]([m5C])p.[moe](T)p.[moe](A)[sp].[moe](T)}$$$$ (last 3' nucleoside missing)", "3 h FOB score": 2.75},
      {"substance": "RNA1{[moe](G)[sp].[moe]([m5C])p.[moe](A)p.[moe](T)p.[moe](A)[sp].d(T)[sp].d(T)[sp].d(G)[sp].d(G)[sp].d(T)[sp].d(T)[sp].d(T)[sp].d(T)[sp].d([m5C])[sp].[moe](T)p.[moe]([m5C])p.[moe](A)[sp].[moe](T)}$$$$ (last 3' nucleoside missing)", "3 h FOB score": 5.5},
      {"substance": "RNA1{[moe](T)[sp].[moe](G)[sp].[moe](T)p.[moe](T)p.[moe](A)[sp].d(A)[sp].d(T)[sp].d(A)[sp].d([m5C])[sp].d(T)[sp].d(T)[sp].d(T)[sp].d(T)[sp].d(T)[sp].d([m5C])[sp].[moe]([m5C])p.[moe](A)p.[moe](G)[sp].[moe]([m5C])}$$$$ (last 3' nucleoside missing)", "3 h FOB score": 1},
      {"substance": "RNA1{[moe](T)[sp].[moe](G)p.[moe](T)p.[moe](T)p.[moe](A)p.d(A)[sp].d(T)[sp].d(A)[sp].d([m5C])[sp].d(T)[sp].d(T)[sp].d(T)[sp].d(T)[sp].d(T)[sp].d([m5C])[sp].[moe]([m5C])p.[moe](A)p.[moe](G)[sp].[moe]([m5C])}$$$$ (last 3' nucleoside missing)", "3 h FOB score": 1},
      {"substance": "RNA1{[moe](A)[sp].[moe]([m5C])p.[moe](T)p.[moe](G)p.[moe](G)[sp].d(T)[sp].d([m5C])[sp].d(A)[sp].d(G)[sp].d(T)[sp].d(T)[sp].d(T)[sp].d([m5C])[sp].d([m5C])[sp].d(T)[sp].[moe](A)p.[moe](A)p.[moe](T)[sp].[moe](T)}$$$$ (last 3' nucleoside missing)", "3 h FOB score": 0},
      {"substance": "RNA1{[moe](G)[sp].[moe](T)p.[moe](G)p.[moe]([m5C])p.[moe](T)[sp].d(T)[sp].d(T)[sp].d(T)[sp].d([m5C])[sp].d(A)[sp].d(T)[sp].d(A)[sp].d([m5C])[sp].d([m5C])[sp].d(A)[sp].[moe](G)p.[moe](G)p.[moe](T)[sp].[moe]([m5C])}$$$$ (last 3' nucleoside missing)", "3 h FOB score": 1}
    ]}
  ]
}
